# Experiment: xn = mol fraction of the nth substance listed
# Conditions: 298.15 K, 101 kPa
compound,measurement,setting,value
CC(C)=O + CC(=O)[O-].CCCC[n+]1ccn(C)c1,speed of sound,x1 = 1,1163 m/s
O + CC(=O)[O-].CC[n+]1ccn(C)c1,speed of sound,x1 = 1,1495 m/s
CC(=O)[O-].CCCC[n+]1ccn(C)c1 + CC(C)=O,speed of sound,x2 = 0,1650 m/s
same,speed of sound,x2 = 0.2024,1600 m/s
same,speed of sound,x2 = 0.3155,1566 m/s
same,speed of sound,x2 = 0.49,1497 m/s
same,speed of sound,x2 = 0.5915,1445 m/s
same,speed of sound,x2 = 0.689,1384 m/s
same,speed of sound,x2 = 0.8036,1301 m/s
same,speed of sound,x2 = 0.8357,1276 m/s
CC[n+]1ccn(C)c1.N#C[S-] + CC(C)=O,speed of sound,x2 = 0,1851 m/s
same,speed of sound,x2 = 0.1125,1824 m/s
same,speed of sound,x2 = 0.1889,1798 m/s
same,speed of sound,x2 = 0.3058,1758 m/s
same,speed of sound,x2 = 0.3917,1720 m/s
same,speed of sound,x2 = 0.5127,1652 m/s
same,speed of sound,x2 = 0.6,1590 m/s
same,speed of sound,x2 = 0.6892,1513 m/s
same,speed of sound,x2 = 0.7842,1417 m/s
same,speed of sound,x2 = 0.9008,1286 m/s
CC(C)=O + CC[n+]1ccn(C)c1.N#C[S-],speed of sound,x1 = 1,1166 m/s
CC(=O)[O-].CC[n+]1ccn(C)c1 + O,speed of sound,x2 = 0,1735 m/s
same,speed of sound,x2 = 0.1306,1754 m/s
same,speed of sound,x2 = 0.2326,1763 m/s
same,speed of sound,x2 = 0.2865,1781 m/s
same,speed of sound,x2 = 0.3671,1795 m/s
same,speed of sound,x2 = 0.4047,1803 m/s
same,speed of sound,x2 = 0.4896,1811 m/s
same,speed of sound,x2 = 0.5258,1838 m/s
same,speed of sound,x2 = 0.5507,1841 m/s
same,speed of sound,x2 = 0.7151,1910 m/s
same,speed of sound,x2 = 0.7317,1922 m/s
same,speed of sound,x2 = 0.8099,1952 m/s
same,speed of sound,x2 = 0.9053,1915 m/s
